This is an account of results in article PMC5120204, “Identification of an orally active small-molecule PTHR1 agonist for the treatment of hypoparathyroidism” (Nature Communications, 2016).

The subject of one data set is TPTX rats. Kind of data set: Repeated administration study in TPTX rats, study 1. Type of data set: in vivo, rat. Here is the method:
TPTX was carried out in 6-week-old female Crl:CD (SD) rats (Charles River Laboratories). Rats with serum Ca levels of <8.0 mg dl^−1 at 5 days after surgery were used in the following experiments. The rats were divided into four groups both in study 1 and 2, each with a similar mean value of serum Ca levels and body weight. Sample sizes were determined as described in the above single administration study. To evaluate the calcemic effects of PCO371 and hPTHs, we defined a target therapeutic range for serum Ca of 7.6–11.2 mg dl^−1, which corresponds to the low normal to normal range of serum Ca levels.
TPTX rats were treated twice daily (at around 09:00 and 19:00 hours) orally (vehicle or PCO371 at 1, 3 or 9 mg kg^−1) or subcutaneously [hPTH(1–34) or vehicle at 9 nmol kg^−1] for 4 weeks. Four rats were assigned to sham control, and treated with vehicle for PCO371. Vehicles for PCO371 and hPTH(1–34) were the same as in the OVX rat study. Under isoflurane anaesthesia, jugular vein blood was collected immediately before and at 6 and 10 h (for PCO371) or at 1 and 10 h (for hPTH) after administrations to measure the serum Ca levels on days 1 (the first dosing day), 7, 14, 22 and 29. Urine was collected for 24 h by using metabolic cages on days 29–30, and Ca excretion was calculated from urine volume and Ca level. Under isoflurane anaesthesia, jugular vein blood was collected 10 h after administrations to measure serum 1,25(OH)2D3 levels on Day 29 by using a 1,25(OH)2D3 RIA kit (Fujirebio). Four or five TPTX rats were assigned to each dose group. Serum and urine Ca levels were measured in the same way as in the single-dosing study. In another experiment, TPTX rats were treated subcutaneously once daily with hPTH(1–84) at 9 nmol kg^−1, for 4 weeks. Serum Ca was measured immediately before and at 2, 6 and 10 h after administration on day 1 (the first dosing day), 7, 14, 21 and 28 using the same method as described above. Urine was collected for 24 h by using metabolic cages on days 28 and 29, and Ca excretion was calculated from urine volume and Ca level.

A short description of data set [1]: Pharmacokinetics in TPTX rats. Type of data set: in vivo, rat. To be noted: female, Crl:CD(SD), rat, plasma, po.
The test system of data set [2] is 12 class B GPCRs (CGRP, calcitonin, CRF1, CRF2α, GLP-1, GLP-2, glucagon, secretin, GHRH, PAC1, VPAC1 and VPAC2). Kind of data set: Selectivity assay (Cerep), agonist and antagonist cAMP assays. Type of data set: cell-based. Conditions: at 1 or 10 μmol l^−1; activity defined as >25% of positive control. Here is the method: Selectivity assays against class B GPCRs were performed by Cerep (France). Agonistic and antagonistic effects of PCO371 against a panel of 12 class B GPCRs (CGRP, calcitonin, CRF1, CRF2α, GLP-1, GLP-2, glucagon, secretin, GHRH, PAC1, VPAC1 and VPAC2) were examined at PCO371 concentrations of 1 and 10 μmol l^−1. The following cell lines were used; T47D (calcitonin), βTC6 (GLP-1), HT-29 (VPAC1, VPAC2), CHO (CGRP, CRF1, GLP-2, Glucagon, Secretin, GHRH and PAC1, recombinant), and HEK-293 (CRF-2, recombinant). Their antagonistic activity was measured in the presence of the control agonists shown in Supplementary Table 1. In agonist and antagonist experiments, intracellular cAMP levels were determined with the HTRF detection system. EC50 and IC50 values of control agonists or antagonists were calculated by non-linear regression analysis of the concentration-response curves generated with mean replicate values using Hill equation curve-fitting using the formula: equation (2).
Y=response, A=left asymptote of the curve, D=right asymptote of the curve, C=compound concentration, C50=EC50 or IC50, nH=slope factor. Agonistic activity of PCO371 at 1 or 10 μmol l^−1 was calculated as a per cent of the control agonist response; intracellular cAMP accumulation by PCO371 × 100/intracellular cAMP accumulation by the control agonist at the EC50 concentration. […]
A general note: Cyclic AMP is a second messenger, typically raised through Gs and lowered through Gi signalling.

Entries after “also recorded” stand apart in the source; their conditions may differ. Read-outs that look alike come from different tables or passages of the source.

For orientation: half-life means how long it takes for the measured level to halve. A high value points to slow decline. Broadly, the AUC is the area under the concentration-time curve, a measure of exposure. A word on the Cmax: it is the highest concentration seen after dosing. A word on the Tmax: it is the time from dosing to the highest level. On to `Cc1cc(N2C(=O)NC(=O)C2(C)C)cc(C)c1CCS(=O)(=O)N1CCC2(CC1)N=C(c1ccc(OC(F)(F)F)cc1)NC2=O` [PCO371, 1-{3,5-dimethyl-4-[2-({4-oxo-2-[4-(trifluoromethoxy)phenyl]-1,3,8-triazaspiro[4.5]dec-1-en-8-yl}sulfonyl)ethyl]phenyl}-5,5-dimethylimidazolidine-2,4-dione], for which the “Serum 1,25(OH)2D3 levels” value in the data set with TPTX rats (9 mg kg^−1 twice-daily oral, 4 weeks) is recorded as “increased significantly”. For the same compound, the “urinary Ca excretion” value with TPTX rats (after 4-week treatment, up to 9 mg kg^−1 twice-daily oral) is recorded as “not increased”. Also, the “hypercalcemia (>11.2 mg dl^−1)” value in the data set with TPTX rats (at 0, 6 and 10 h after administrations on days 1, 7, 14, 22 and 29) was “no hypercalcemia”. Moreover, the “time serum Ca maintained within the target range after each administration” value in the data set on TPTX rats (twice-daily oral 3 mg kg^−1 or more, 4 weeks) is reported as “at least 6 h”. For the same compound, the “body weight or general condition vs vehicle-treated rats” value in the data set on TPTX rats (twice-daily oral, 4 weeks) is “no significant difference”. In addition, the “dose that increased serum Ca to within the target therapeutic range” value in the data set on TPTX rats (twice-daily oral, 4 weeks, range 7.6–11.2 mg dl^−1) is no less than 3 mg/kg. Besides, the half-life is 6.9 ± 2.3 h in data set [1] (p.o. 2 mg kg-1), 4.9 ± 0.6 h in data set [1] (p.o. 6 mg kg-1) and 4.7 ± 0.7 h in data set [1] (p.o. 18 mg kg-1). In addition, the AUC came to 464 ± 125 ng·h/mL in data set [1] (p.o. 2 mg kg-1, read-out: AUC); 1590 ng·h/mL in data set [1] (p.o. 6 mg kg-1, read-out: AUC); 9210 ng·h/mL in data set [1] (p.o. 18 mg kg-1, read-out: AUC). The Cmax turned out to be 95.6 ± 84.4 ng/mL in data set [1] (p.o. 2 mg kg-1, read-out: Cmax); 216 ± 103 ng/mL in data set [1] (p.o. 6 mg kg-1, read-out: Cmax); 1630 ng/mL in data set [1] (p.o. 18 mg kg-1, read-out: Cmax). Besides, the time of peak concentration (Tmax) in data set [1] (p.o. 2 mg kg-1, read-out: Tmax) came out at 1.4 ± 1 h; in data set [1] (p.o. 6 mg kg-1, read-out: Tmax) it was 1.3 ± 0.6 h; in data set [1] (p.o. 18 mg kg-1, read-out: Tmax) it was 3.7 ± 3.8 h. In addition, the “agonistic and antagonistic activities against 12 class B GPCRs” value in data set [2] is reported as “did not show agonistic or antagonistic activity; also recorded: did not exhibit activity”.
